Consider 21 compounds from ChEMBL document CHEMBL1133230, “1-Aminomethylisoquinoline-4-carboxylates as novel dipeptidylpeptidase IV inhibitors” (Bioorg Med Chem Lett, 2000).

Structures are written as SMILES.

The assay addresses Dipeptidyl peptidase 4 (Homo sapiens, UniProt P27487). The assay can be described thus: In vitro inhibition of Dipeptidylpeptidase IV from Caco-2 (human colon carcinoma) cells. The format is cell-based.

Sequence of Dipeptidyl peptidase 4 (P27487 whole entry): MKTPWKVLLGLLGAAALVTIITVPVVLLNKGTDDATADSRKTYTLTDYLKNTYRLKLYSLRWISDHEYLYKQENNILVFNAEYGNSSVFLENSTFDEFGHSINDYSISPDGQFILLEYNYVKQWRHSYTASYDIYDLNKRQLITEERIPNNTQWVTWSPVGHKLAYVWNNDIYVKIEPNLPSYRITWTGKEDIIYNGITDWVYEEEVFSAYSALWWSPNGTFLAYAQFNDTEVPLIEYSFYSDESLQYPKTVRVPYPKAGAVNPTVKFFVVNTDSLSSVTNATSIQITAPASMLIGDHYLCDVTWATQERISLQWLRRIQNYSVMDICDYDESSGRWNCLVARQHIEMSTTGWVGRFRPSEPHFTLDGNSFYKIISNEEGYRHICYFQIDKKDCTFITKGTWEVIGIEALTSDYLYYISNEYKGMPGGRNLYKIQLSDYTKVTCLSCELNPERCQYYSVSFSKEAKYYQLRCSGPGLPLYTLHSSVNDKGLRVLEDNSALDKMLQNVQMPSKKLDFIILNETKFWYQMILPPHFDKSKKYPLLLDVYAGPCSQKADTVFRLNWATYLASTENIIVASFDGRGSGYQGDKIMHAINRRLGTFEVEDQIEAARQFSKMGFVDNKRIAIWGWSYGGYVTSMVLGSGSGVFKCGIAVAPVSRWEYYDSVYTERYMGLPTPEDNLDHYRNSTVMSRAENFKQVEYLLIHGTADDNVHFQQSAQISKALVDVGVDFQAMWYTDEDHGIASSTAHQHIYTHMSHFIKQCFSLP

As a reminder, the IC50 is the concentration at which inhibition is half-maximal. `CCOC(=O)CCc1cnc(CN)c2cc(OC)c(OC)cc12`: the IC50 amounted to 52.6 µM.

`CCOC(=O)c1cnc(CCN)c2cc(OC)c(OC)cc12` showed an IC50 of 746 µM.

For the compound `CCOC(=O)/C=C/c1cnc(CN)c2cc(OC)c(OC)cc12`, the half-inhibitory concentration (IC50) was 18 µM.

`CCOC(=O)c1cnc(CN)c2c(OC)c(OC)c(OC)cc12` registered an IC50 of 1.1 µM.

With `CCOC(=O)c1cnc(CN)c2cc(OC)c(OC)c(OC)c12`, the concentration for half-maximal inhibition (IC50) was found to be 18 µM.

`CCCNC(=O)c1cnc(CN)c2cc(OC)c(OC)cc12` returned an IC50 of 51.4 µM.

Compound `COc1cc2c(C=O)cnc(CN)c2cc1OC` yielded an IC50 of 277 µM.

Take `CCCOc1cc2c(CN)ncc(C(=O)OCC)c2cc1OC`: the half-inhibitory concentration (IC50) is 8.4 µM.

Regarding `CCOC(=O)c1cnc(CN(C)C)c2cc(OC)c(OC)cc12`, half-maximal inhibition (IC50) required 948 µM.

In turn, `CCOC(=O)Cc1cnc(CN)c2cc(OC)c(OC)cc12` registered a half-inhibitory concentration (IC50) of 17 µM.

`CCOC(=O)c1cnc(CN)c2ccc(OC)cc12` gave an IC50 of 207 µM.

Compound `CCOC(=O)c1cnc(CN)c2cc(OC)c(OC)cc12` showed a half-inhibitory concentration (IC50) of 3.4 µM.

`CCOC(=O)c1cnc(CN)c2cc(O)c(OC)cc12`: the IC50 was found to be 14 µM.

Compound `CCOC(=O)c1cnc(CN)c2cc(OC)c(OCC)cc12` had a 50% inhibitory concentration (IC50) of 4.7 µM.

As to `CCOC(=O)c1cnc(CN)c2c(OC)ccc(OC)c12`, the IC50 stood at 2.4 µM.

On to `CCOC(=O)Nc1cnc(CN)c2cc(OC)c(OC)cc12`, for which the IC50 amounted to 2.3 µM.

As to `CCOC(=O)c1cnc(CNC)c2cc(OC)c(OC)cc12`, the IC50 was 731 µM.

As to `CCOC(=O)c1cnc(CN)c2cc(OCC)c(OC)cc12`, the IC50 was 6.7 µM.

Take `COc1cc2c(CO)cnc(CN)c2cc1OC`: the IC50 stood at 31.8 µM.

Take `COc1cc2c(C(N)=O)cnc(CN)c2cc1OC`: half-maximal inhibition (IC50) required 170 µM.

The compound `COc1cc2c(C(=O)O)cnc(CN)c2cc1OC` came in with an IC50 of 103 µM.
